This is an account of results in ChEMBL document CHEMBL1201862, “PubChem BioAssay data set” (2004).

The target in one experiment is T1, Coagulation factor XII (Homo sapiens, UniProt P00748).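 Also: activated factor XIIa alpha cleaving a fluorogenic AMC peptide substrate; inhibitor potency from loss of enzyme activity.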
T1 sequence (P00748 whole entry): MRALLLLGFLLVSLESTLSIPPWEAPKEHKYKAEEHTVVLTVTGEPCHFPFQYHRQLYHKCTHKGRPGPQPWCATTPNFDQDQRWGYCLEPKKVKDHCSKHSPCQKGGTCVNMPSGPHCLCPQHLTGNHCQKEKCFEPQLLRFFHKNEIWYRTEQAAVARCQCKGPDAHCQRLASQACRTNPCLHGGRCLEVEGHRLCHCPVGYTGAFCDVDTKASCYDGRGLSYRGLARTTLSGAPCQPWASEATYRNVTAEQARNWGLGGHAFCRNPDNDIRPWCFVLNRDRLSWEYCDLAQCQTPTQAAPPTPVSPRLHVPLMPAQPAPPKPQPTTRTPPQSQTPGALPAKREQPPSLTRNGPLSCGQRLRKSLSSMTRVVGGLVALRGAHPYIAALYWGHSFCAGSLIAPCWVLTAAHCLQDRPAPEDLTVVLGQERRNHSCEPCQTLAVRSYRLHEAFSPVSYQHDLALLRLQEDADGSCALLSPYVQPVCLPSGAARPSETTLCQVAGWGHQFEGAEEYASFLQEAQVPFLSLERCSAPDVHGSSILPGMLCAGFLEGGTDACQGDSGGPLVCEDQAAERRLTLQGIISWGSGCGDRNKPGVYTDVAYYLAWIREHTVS
In kind it is functional.

Experiment [1] has as its target T2, RNA-binding protein pos-1 (Caenorhabditis elegans, UniProt G5EF15).
T2 sequence (G5EF15 whole entry): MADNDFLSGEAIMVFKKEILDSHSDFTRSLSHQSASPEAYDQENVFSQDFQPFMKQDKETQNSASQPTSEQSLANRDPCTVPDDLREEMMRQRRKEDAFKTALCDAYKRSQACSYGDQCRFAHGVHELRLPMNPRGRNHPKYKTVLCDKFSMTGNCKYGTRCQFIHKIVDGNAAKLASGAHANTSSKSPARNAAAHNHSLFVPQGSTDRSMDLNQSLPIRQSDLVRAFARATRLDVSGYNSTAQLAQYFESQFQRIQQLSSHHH
In words: disruptors of C. elegans POS-1 RNA interaction – biochemical, fluorescence polarization, dose response (AID 1964).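 Also: purified POS-1 fused to maltose binding protein made in E. coli; potency of compounds blocking POS-1 binding to fluorescent RNA.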 A general note: Fluorescence polarisation rises when a labelled molecule tumbles more slowly, as on binding a larger partner.

Experiment [2] has as its target T3, Zinc finger protein mex-5 (Caenorhabditis elegans, UniProt Q9XUB2).
T3 sequence (Q9XUB2 whole entry): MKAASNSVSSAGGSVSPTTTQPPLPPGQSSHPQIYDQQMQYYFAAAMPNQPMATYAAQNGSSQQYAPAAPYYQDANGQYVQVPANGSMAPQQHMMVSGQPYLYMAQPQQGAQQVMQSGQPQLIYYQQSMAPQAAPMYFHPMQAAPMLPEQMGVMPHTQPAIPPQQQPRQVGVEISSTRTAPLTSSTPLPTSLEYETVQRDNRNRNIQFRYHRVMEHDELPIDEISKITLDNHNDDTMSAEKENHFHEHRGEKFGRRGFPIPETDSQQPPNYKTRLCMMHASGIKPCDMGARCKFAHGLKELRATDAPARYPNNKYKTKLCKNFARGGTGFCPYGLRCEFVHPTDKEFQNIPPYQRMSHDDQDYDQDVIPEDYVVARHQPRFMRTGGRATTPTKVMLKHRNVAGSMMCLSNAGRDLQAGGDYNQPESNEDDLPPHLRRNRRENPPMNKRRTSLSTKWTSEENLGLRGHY
Description: potency of MEX-5 RNA-binding blockers – biochemical, C. elegans, fluorescence polarization, dose response (AID 1960).

Experiment [3] can be described thus: viability of HCT116 lacking mutant beta-catenin – cell-based, human colon tumor, dose response (AID 1045).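 Also: HCT116 colon tumor cells with beta catenin knocked out; cells exposed to compound for 60 hours.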 It counts as functional.
Experiment [4] in a line: viability of PTEN-deleted HCT116 cells – cell-based, HCT116 PTEN knockout, dose response (AID 1047).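 Also: HCT116 colon tumor cells with PTEN knocked out; cells exposed to compound for 60 hours before readout; potency for loss of cell viability measured by luminescence.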 In kind it is functional.
The next experiment relates to Vero. Description: cells. The note with it: Chlorocebus sabaeus. In kind it is functional.
In experiment [5] the target is T4, Polyadenylate-binding protein 1 (Homo sapiens, UniProt P11940). Description: MLLE binding blockers, Cy5 peptide tracer – biochemical, fluorescence polarization, Cy5-PAM2 peptide, secondary, miRNA deadenylation inhibitor project, dose response (AID 602260). It counts as functional. The note with it: read-out: IC50_Mean.
The target of experiment [6] is T4, Polyadenylate-binding protein 1. Description: MLLE domain peptide-binding blockers, IC50 – biochemical, fluorescence polarization, FITC-PAM2 peptide, dose response (AID 602259). It counts as functional. The note with it: read-out: IC50_Mean.
The target of experiment [7] is T5, High affinity choline transporter 1 (Homo sapiens, UniProt Q9GZV3).
T5 sequence (Q9GZV3 whole entry): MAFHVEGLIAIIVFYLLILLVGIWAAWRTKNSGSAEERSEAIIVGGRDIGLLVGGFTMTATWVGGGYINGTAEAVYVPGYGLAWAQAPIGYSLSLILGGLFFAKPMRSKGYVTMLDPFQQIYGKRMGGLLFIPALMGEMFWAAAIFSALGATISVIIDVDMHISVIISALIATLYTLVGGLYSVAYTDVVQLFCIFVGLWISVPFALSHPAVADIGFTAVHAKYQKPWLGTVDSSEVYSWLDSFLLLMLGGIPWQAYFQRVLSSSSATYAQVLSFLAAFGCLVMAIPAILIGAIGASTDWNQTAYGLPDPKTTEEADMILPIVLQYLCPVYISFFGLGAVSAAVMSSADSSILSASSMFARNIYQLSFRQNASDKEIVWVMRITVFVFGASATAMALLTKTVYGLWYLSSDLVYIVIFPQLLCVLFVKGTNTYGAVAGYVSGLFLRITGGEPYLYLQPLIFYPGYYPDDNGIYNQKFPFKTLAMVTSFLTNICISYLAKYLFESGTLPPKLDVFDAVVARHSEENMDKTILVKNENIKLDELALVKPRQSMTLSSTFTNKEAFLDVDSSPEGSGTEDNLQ
Description: human choline transporter blockers, potency – cell-based, 5-point CRC, membrane potential dye, dose response (AID 504840). It counts as functional.

Experiment [8] is described as follows: cells. In kind it is functional, cell-based.
A short description of experiment [9]: cells. It counts as functional, cell-based. This is another data set of the same source.
Experiment [10] concerns Streptococcus sp. 'group A'. In words: Streptococcus pyogenes SK(-)GAS viability under kanamycin – luminescence, BacTiterGlo, confirmation, counter-screen for streptokinase expression inhibitor project, dose response (AID 1900). In kind it is functional, organism-based. (In general: A counterscreen serves to expose hits that act by an unwanted route or on another target.)

A further experiment has as its system Streptococcus. In words: GAS UMAA2166 growth inhibition – luminescence, BacTiterGlo, counter-screen for streptokinase expression inhibitor project, dose response (AID 1915).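 Also: potency for reduction of bacterial viability or growth.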 In kind it is functional, organism-based.
Experiment [11] has as its target T6, Heat shock factor protein 1 (Mus musculus, UniProt P38532).
T6 sequence (P38532 whole entry): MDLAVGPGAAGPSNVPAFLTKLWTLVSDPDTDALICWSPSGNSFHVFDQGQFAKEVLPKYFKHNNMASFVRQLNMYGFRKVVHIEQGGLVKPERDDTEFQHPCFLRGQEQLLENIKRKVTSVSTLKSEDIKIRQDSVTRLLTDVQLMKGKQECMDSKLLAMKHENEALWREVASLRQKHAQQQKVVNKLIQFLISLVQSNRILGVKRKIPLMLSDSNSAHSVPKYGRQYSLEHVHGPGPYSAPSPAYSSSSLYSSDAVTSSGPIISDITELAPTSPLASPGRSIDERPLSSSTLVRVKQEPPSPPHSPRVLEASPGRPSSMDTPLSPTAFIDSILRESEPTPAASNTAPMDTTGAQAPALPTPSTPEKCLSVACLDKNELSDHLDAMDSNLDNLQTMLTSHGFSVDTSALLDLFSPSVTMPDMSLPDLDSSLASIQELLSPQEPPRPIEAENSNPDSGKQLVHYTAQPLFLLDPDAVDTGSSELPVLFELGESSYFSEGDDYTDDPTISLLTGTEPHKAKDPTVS
In words: decrease of HSF1-responsive luciferase luminescence – cell-based, NIH3T3, dose retest, confirmation (AID 2382).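 Also: NIH3T3 fibroblasts with HSF1-driven luciferase reporter stressed by proteasome inhibitor MG132; luminescence from HSF1-driven luciferase expression after 8 hours of MG132 stress.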 In kind it is functional.

Experiment [12] deals with Induced myeloid leukemia cell differentiation protein Mcl-1 (Homo sapiens, UniProt Q07820). In kind it is functional.
Experiment [13] has as its target T7, Carboxy-terminal domain RNA polymerase II polypeptide A small phosphatase 1 (Homo sapiens, UniProt Q9GZU7).
T7 sequence (Q9GZU7 whole entry): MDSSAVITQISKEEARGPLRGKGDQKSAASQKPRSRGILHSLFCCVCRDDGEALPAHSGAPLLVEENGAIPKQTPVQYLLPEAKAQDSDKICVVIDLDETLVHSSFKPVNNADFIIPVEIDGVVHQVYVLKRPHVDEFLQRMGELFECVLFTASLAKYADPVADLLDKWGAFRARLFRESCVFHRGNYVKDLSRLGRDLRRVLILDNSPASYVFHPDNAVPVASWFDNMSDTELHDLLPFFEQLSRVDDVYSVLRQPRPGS
Description: CTDSP1 inhibitors, concentration-response, biochemical, absorbance readout, ultra-high-throughput screen actives (AID 540297). It counts as functional.

A short description of experiment [14]: THP-1 cell cytotoxicity, dose response, cytotoxicity control for non-replicating M. tuberculosis project (AID 489025). It counts as functional.
A short description of experiment [15]: cells. In kind it is functional.
Experiment [16] addresses T6, Heat shock factor protein 1. In words: enhancement of HSF1-driven luciferase signal – cell-based, NIH3T3, luminescence, dose retest, confirmation (AID 435004).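 Also: stress induced by proteasome inhibitor MG132 added 30 min after compound; luciferase reporter driven by HSF1 response element in NIH3T3 cells; actives raise luminescence as potentiators of the MG132 stress response.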 It counts as functional.

Each structure is given as a SMILES string. Active and inactive are the calls of the source.

T4 sequence (P11940 whole entry, the tested form may be a part): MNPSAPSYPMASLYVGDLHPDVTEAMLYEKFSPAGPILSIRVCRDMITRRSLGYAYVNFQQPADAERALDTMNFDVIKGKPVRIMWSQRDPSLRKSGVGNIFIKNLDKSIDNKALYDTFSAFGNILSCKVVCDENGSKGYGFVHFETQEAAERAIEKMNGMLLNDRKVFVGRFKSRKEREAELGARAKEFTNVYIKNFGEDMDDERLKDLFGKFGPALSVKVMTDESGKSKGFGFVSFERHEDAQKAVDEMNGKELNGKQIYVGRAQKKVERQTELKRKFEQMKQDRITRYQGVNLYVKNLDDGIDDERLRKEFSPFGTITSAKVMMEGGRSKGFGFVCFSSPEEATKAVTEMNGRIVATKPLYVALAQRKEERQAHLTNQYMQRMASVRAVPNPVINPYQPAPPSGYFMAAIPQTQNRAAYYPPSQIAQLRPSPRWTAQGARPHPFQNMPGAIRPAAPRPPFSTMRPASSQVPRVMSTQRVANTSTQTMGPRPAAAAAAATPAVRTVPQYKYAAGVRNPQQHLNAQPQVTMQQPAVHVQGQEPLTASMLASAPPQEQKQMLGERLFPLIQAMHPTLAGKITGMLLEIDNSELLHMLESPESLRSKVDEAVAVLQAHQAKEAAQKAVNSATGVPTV
Chain of Induced myeloid leukemia cell differentiation protein Mcl-1 (Q07820 whole entry, the tested form may be a part): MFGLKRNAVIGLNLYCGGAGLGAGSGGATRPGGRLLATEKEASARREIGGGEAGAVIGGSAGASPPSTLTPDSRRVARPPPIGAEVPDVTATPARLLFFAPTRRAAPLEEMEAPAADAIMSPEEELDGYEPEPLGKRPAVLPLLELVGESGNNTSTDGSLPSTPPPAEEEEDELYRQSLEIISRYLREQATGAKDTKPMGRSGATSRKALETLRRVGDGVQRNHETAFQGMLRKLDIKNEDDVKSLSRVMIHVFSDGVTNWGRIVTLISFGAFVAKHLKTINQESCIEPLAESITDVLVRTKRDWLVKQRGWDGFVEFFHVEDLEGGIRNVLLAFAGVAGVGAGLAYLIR

For `CCC(C)[C@H](NC(=O)Nc1ccc(C(C)=O)cc1)C(=O)OC` (stereo partly drawn), the IC50 at Coagulation factor XII is > 50 µM (inactive).
One may read the EC50 as the concentration needed to bring the measured effect to its halfway point. In the case of `CCOC1(OCC)N=C(N)C2(C#N)C(c3ccc(NC(C)=O)cc3)C12C#N` (stereo not drawn), the EC50 is 155 µM (active) in experiment [1] and 79.4 µM (active) in experiment [2].
In general, CC50 refers to the concentration that lowers cell viability or growth by half. As to `Cc1cccc(OCC(O)Cn2c(=N)n(CCN3CCCCC3)c3ccccc32)c1` (stereo not drawn), the EC50 is 6.6 µM (active) in [3] and 7.39 µM (active) in experiment [4]. Also, in the experiment on Vero, the CC50 was 15 µM (active).
As for `CC(C)OC(=O)c1cccc(NC(=O)CSc2nnc(N)s2)c1`, the IC50 on Coagulation factor XII is > 50 µM (inactive).
For `COc1ccc(CN(C)C(=S)Nc2ccc(Cl)cc2)cc1`, the IC50 at Coagulation factor XII is > 50 µM (inactive).
As for `Cc1cc2cc(CNC(=O)COc3ccccc3)ccc2n1C`, the IC50 in experiment [5] and in experiment [6] was > 66 µM (inactive) throughout.
Take `Cc1ccc(NC(S)=Nc2ccc3[nH]c(O)nc3c2)cc1C`: the IC50 in experiment [5] is > 66 µM (inactive); in [7], 14.5 µM (active); in experiment [6] it was > 66 µM (inactive).
For the molecule `CN1CCN(S(=O)(=O)c2ccc(NC(=S)NC(=O)C(C)(C)C)cc2)CC1`, the IC50 in experiment [5] and in experiment [6] was > 66 µM (inactive) throughout.
As for `Cc1nn(CC(=O)N2CCc3ccccc3C2)c(C)c1[N+](=O)[O-]`, the IC50 at Coagulation factor XII was > 50 µM (inactive).
`CCOc1ccc(NC(=O)COc2ccccc2)c([N+](=O)[O-])c1`: the EC50 in experiment [1] was > 300 µM (not active); in experiment [2] it was > 300 µM (not active); in “cells [8]” it was 11.9 µM (active); in “cells [9]”, > 350 µM (not active).
Consider `Cc1ccc(S(=O)(=O)Nc2ccccc2F)cc1C(=O)NNC(=O)c1csc(N2CCOCC2)n1`, for which the figures for the EC50 in [1] and in [2] were 30.8 µM (active) and 23.3 µM (active), respectively.
As to `COc1ccc(C(=O)NNC(=S)NC(=O)c2ccc(F)cc2)cc1Br`, the EC50 was 0.378 µM (active) in experiment [10] and 1.73 µM (active) in the experiment with Streptococcus. The CC50 in the experiment with Vero was > 25 µM (active).
As to `Cc1c(N=C2Nc3cccc4cccc2c34)c(=O)n(-c2ccccc2)n1C`, the EC50 in experiment [1] and in experiment [2] was > 300 µM (not active) in each case.
Take `CC(=O)c1ccccc1-c1csc2ncnc(Sc3nnnn3C)c12`: in the experiment with Vero, the CC50 was > 25 µM (active).
The same measure, in the same setting: the result for `CCOC(=O)c1ccccc1NC(=O)c1cn(-c2ccc(OC)cc2)c(=O)c2ccccc12` reads > 25 µM (active).
Regarding `CS(=O)(=O)N(Cc1ccccc1)c1ccc(C(=O)NC2CCCCC2O)cc1` (stereo not drawn), the IC50 on Coagulation factor XII was > 50 µM (inactive).
Take `COc1cc(NC(=O)CSc2nnc3ccc(-c4ccncc4)nn23)cc(OC)c1`: the EC50 in experiment [1] and in [2] was > 300 µM (not active) throughout.
As for `CC(C)c1nc(SCC(=O)c2ccc(F)cc2)c2ccccc2n1`, in experiment [11], the EC50 is recorded as > 195 µM (not active). Also, the IC50 in experiment [5] and in [6] was > 66 µM (inactive) each time.
Consider `COc1ccc(C(=O)NC2(C(F)(F)F)C(=O)N(Cc3ccco3)C3=C2C(=O)CC(C)(C)C3)cc1OC` (stereo not drawn), for which the EC50 in experiment [1] and in experiment [2] was > 300 µM (not active) each time.
On to `O=C(COc1ccc2ccccc2c1)NNC(=O)c1ccc([N+](=O)[O-])cc1`, for which the IC50 in experiment [12] was 7.07 µM (active); in experiment [13], 6.67 µM (active).
As for `CCCn1cc(CN2CCCC(C(=O)c3cccc(OC)c3)C2)c(C)n1` (stereo not drawn), the IC50 at Coagulation factor XII is > 50 µM (inactive).
As to `COc1ccc(C(=O)NCC(=O)N/N=C/c2ccc([N+](=O)[O-])o2)cc1OC`, the CC50 in experiment [14] was 24 µM (active). Moreover, the IC50 in “cells [15]” is 4.08 µM (active).
Regarding `Cc1ccc(C(=O)Oc2oc(-c3ccccc3)nc2/C=N/c2ccc(N(C)C)cc2)cc1`, the EC50 is > 300 µM (not active) in experiment [1], 6.88 µM (active) in experiment [16] and > 300 µM (inconclusive) in [2].
Take `CSc1nc2c(=S)[nH]c(=S)[nH]c2s1`: the IC50 in [5] and in experiment [6] was > 66 µM (inactive) throughout.
Take `CCN(CC)c1ccc(/C=N/NS(=O)(=O)c2cccc([N+](=O)[O-])c2)cc1`: on Coagulation factor XII, the IC50 was > 50 µM (inactive).
